{"source": "paper PMC3472974", "about": "“The Bite of the Honeybee: 2-Heptanone Secreted from Honeybee Mandibles during a Bite Acts as a Local Anaesthetic in Insects and Mammals” (PLoS ONE, 2012)", "key": {"[1]": {"test_system": "isolated rat sciatic nerve", "test": "tissue or blood", "settings": "for IT50: unit not given in Table 3, seconds per Table 2", "from_the_text": "The ex vivo studies used both male and female rats weighing between 230 and 250 g. Animals were sacrificed using light anaesthesia with CO2 and cervical dislocation. The sciatic nerve of the rat, consisting of 27,000 sciatic nerve fibres, was isolated in a three-chamber recording bath (Fig. 5b). The sciatic nerves were dissected from the spinal cord to the knee, immersed in oxygenated (O2, 100%) saline solution and cleaned. The composition of the saline was (in mmoles/L): 136 NaCl, 11 glucose, 4.7 KCl, 2.4 CaCl2, 1.1 MgCl2, 1 NaHCO3, 10 HEPES, pH = 7.2). All experiments were performed at a constant temperature, 26.0±1.0°C. […] The nerve was mounted in a three-chambered recording bath made of Plexiglas, which is described elsewhere, [30]. The recording bath consisted of the recording (R in Fig. 5b), perfusion (P) and stimulating (S) chambers, each with a volume of 12 mL. The nCAP (Fig. 5a) was generated by stimulating (1 Hz) the part of the nerve in the stimulating chamber and was recorded in the recording chamber every second using standard electrophysiological methods. The nCAP was monitored throughout the experiment as an indication of the vitality of the nerve fibres in the recording bath. […] Immediately after the nCAP was eliminated, the saline+compound was removed and the nerve was washed out. Then, recovery of the nCAP in normal stagnant saline was monitored for 24 h. It is worth noting that the recording bath is designed in such a way that the chambers with the saline and 2-H (the nerves and the recording electrodes) was shielded from the air by using the cover (c in Fig. 5b) to avoid evaporation of the volatile 2-H. The saline with 2-H was added through a small diameter opening on the cover.\nFor further data analysis, the amplitude of the nCAPs, estimated from baseline to peak (Fig. 5), were measured at a specific time (every 1.0 s, 1.0 min or 1.0 h) and were expressed as a percentage of the amplitude of the nCAP at t = 0 (which was considered to be 100%). In the neuropharmacological experiments, time t = 0 was considered the time before application of the compound under investigation. […] The data were fitted in the program GraphPad Prism 5.0 using a one-phase exponential decay equation for the IC50. Data were analyzed by one-way ANOVA and Bonferroni’s post hoc tests, when required. Significance was determined using Students t-test or ANOVA as appropriate (p<0.05)."}, "wax moth larvae (WML)": {"test_system": "wax moth larvae (WML)", "test": "Locomotory pattern of tethered wax moth larvae after injection", "assay_type": "in vivo, Galleria mellonella", "settings": "large WML", "from_the_text": "To monitor the constant locomotory pattern of WML, the probe of a force-displacement transducer (FT-03C, Grass Instrument Company, USA), attached to a micromanipulator, was hooked onto the tail of the WML, while the head was carefully pinned to a wax substrate, [14]. The electrical signal generated by the rhythmic force produced during locomotion was amplified and fed to a computer through a data acquisition card interface (Keithley KPCI 3102, Keithley Instruments, Cleveland, OH, USA). Software designed using the facilities of Labview (Labview 5.1, National Instruments USA) permitted analysis of the recorded data."}, "hNav1.6 channels": {"molecular_target": "T1, hNav1.6 channels (Homo sapiens, UniProt Q9UQD0)", "T1 construct": "expressed in transfected cells; host or cells: CHO-K1 (ATCC CCL-61)", "T1 sequence (Q9UQD0 whole entry)": "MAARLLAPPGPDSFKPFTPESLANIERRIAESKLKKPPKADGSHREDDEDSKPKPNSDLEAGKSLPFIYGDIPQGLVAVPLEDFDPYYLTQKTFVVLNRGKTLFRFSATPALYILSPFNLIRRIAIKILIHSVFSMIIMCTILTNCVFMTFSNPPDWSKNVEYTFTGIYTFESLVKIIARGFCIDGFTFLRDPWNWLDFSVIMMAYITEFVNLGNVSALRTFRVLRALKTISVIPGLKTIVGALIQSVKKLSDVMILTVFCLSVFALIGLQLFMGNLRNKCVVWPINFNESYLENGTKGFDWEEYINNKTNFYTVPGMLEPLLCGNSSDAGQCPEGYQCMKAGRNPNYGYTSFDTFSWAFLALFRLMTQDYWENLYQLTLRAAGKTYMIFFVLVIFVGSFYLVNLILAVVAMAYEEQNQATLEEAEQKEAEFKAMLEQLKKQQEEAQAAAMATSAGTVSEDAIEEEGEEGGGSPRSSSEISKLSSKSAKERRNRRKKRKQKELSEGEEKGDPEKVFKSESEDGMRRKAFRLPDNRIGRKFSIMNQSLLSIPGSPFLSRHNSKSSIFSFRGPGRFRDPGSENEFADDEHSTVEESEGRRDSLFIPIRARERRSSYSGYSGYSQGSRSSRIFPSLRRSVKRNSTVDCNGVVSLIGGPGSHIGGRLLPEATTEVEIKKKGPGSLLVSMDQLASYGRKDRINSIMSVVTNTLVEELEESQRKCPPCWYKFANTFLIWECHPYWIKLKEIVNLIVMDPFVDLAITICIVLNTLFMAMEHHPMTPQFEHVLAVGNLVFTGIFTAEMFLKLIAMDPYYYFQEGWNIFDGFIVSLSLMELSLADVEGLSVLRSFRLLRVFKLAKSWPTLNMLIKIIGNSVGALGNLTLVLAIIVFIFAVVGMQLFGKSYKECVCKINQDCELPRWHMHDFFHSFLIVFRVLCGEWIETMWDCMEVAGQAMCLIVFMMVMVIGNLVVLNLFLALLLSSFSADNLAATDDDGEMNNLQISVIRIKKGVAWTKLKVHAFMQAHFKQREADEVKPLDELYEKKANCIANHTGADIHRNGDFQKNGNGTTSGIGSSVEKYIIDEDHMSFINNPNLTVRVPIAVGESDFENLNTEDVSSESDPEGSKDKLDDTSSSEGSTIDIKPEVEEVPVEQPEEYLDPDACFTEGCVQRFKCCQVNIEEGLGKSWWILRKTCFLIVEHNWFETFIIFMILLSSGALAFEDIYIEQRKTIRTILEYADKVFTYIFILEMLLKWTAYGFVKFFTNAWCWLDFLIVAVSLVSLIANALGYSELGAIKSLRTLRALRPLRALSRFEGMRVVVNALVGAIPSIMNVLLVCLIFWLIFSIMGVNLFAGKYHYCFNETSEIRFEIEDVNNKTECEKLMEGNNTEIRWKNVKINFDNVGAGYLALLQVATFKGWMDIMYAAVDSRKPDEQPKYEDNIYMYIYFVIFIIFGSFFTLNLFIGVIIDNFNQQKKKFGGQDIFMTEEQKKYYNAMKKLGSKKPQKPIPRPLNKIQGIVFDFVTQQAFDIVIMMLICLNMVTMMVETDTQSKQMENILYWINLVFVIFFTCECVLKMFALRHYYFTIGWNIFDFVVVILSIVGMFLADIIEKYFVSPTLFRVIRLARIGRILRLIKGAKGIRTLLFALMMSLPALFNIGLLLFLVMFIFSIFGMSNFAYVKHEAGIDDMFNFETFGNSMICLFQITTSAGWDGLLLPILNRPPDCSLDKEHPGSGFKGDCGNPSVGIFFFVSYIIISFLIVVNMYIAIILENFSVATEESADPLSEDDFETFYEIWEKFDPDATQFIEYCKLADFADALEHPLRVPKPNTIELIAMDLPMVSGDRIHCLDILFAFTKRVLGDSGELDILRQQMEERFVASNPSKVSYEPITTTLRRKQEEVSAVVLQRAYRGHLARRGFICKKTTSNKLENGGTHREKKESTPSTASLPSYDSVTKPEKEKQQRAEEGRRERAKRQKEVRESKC", "test": "Patch-clamp (PatchXpress 7000A) on transfected CHO cells, hNav1.6", "assay_type": "cell-based", "settings": "CHO cells, n = 6, mean ± SEM, 2-H exposure limited to 3 min", "from_the_text": "To test whether 2-H can act by blocking VGNaCs, the PatchXpress 7000A was used. Mammalian CHO (Chinese hamster ovary) transfected with ion hNav1.2 and hNav1.6 channels cDNAs (SCN2A and SCN8A genes) were exposed to 2-H under both tonic and phasic conditions. The mammalian CHO-K1 epithelial embryonic cell line (ATCC number CCL-61) from Cricetulus griseus was obtained from ATCC, Manassas, VA. CHO-K1 cells were transfected with either hNav1.2 or hNav1.6 channel cDNA (SCN2A and SCN8A genes, respectively) and were exposed to 2-H under both tonic and phasic conditions.\nThe effects of 2-H were evaluated on hNav1.2 at 0.73, 1.46, 2.19, and 2.92 mg/mL and on hNav1.6 channels at 0.1, 0.36, 0.73, and 1.46 mg/mL, with each concentration tested in at least six cells (n = 6). Cells were exposed to each concentration of 2-H and measurements of the inward current were obtained within the first 3 min of exposure. […] Since the PatchXpress has open cell chambers where the testing occurs, there is no way to hermetically seal the experiment.\nBased on this analysis, we estimated the IC50."}, "rat sciatic nerve": {"test_system": "rat sciatic nerve", "settings": "80 mM, rat sciatic nerve in vitro; cited from earlier work"}, "[2]": {"settings": "Table 3, 3.41 mg/mL, unit not given in Table 3, s"}}, "note": "Marks after values point to notes of the source that are not given here."}
{"smiles": "CCCCC(C)=O", "note": "[2-hexanone]", "values": [{"measurement": "IT0", "setting": "[1]; [2]", "value": "401.00 ± 33.20", "unit": "s"}, {"measurement": "IT50", "setting": "[1]; Table 3, 3.41 mg/mL", "value": "74.42 ± 0.79", "unit": "s"}]}
{"smiles": "CCCCCCC(C)=O", "note": "[2-octanone]", "values": [{"measurement": "IT0", "setting": "[1]; [2]", "value": "555.00 ± 75.00", "unit": "s"}, {"measurement": "IT50", "setting": "[1]; Table 3, 3.41 mg/mL", "value": "81.45 ± 1.58", "unit": "s"}]}
{"smiles": "CCCC(C)=O", "note": "[2-pentanone]", "values": [{"measurement": "IT0", "setting": "[1]; 3.41 mg/mL", "value": "greater than 24 h"}, {"measurement": "IT0", "setting": "[1]; [2]", "value": "No measurable"}, {"measurement": "IT50", "setting": "[1]; Table 3, 3.41 mg/mL", "value": "390.60 ± 0.10", "unit": "s"}]}
{"smiles": "CCCCC(=O)CC", "note": "[3-heptanone]", "values": [{"measurement": "IT0", "setting": "[1]; [2]", "value": "258.00±11.47^b seconds"}, {"measurement": "IT50", "setting": "[1]; Table 3, 3.41 mg/mL", "value": "40.82 ± 1.67", "unit": "s"}]}
{"smiles": "CCCCCC(=O)CC", "note": "[3-octanone]", "values": [{"measurement": "IT0", "setting": "[1]; [2]", "value": "722.50 ± 95.66", "unit": "s"}, {"measurement": "IT50", "setting": "[1]; Table 3, 3.41 mg/mL", "value": "117.10 ± 0.53", "unit": "s"}]}
{"smiles": "CCC(=O)CC", "note": "[3-pentanone]", "values": [{"measurement": "IT0", "setting": "[1]; [2]", "value": "765.00 ± 86.60", "unit": "s"}, {"measurement": "IT50", "setting": "[1]; Table 3, 3.41 mg/mL", "value": "230.30 ± 1.29", "unit": "s"}]}
{"smiles": "CCCC(=O)CCC", "note": "[4-heptanone]", "values": [{"measurement": "IT0", "setting": "[1]; [2]", "value": "283.57±16.89^b seconds"}, {"measurement": "IT50", "setting": "[1]; Table 3, 3.41 mg/mL", "value": "45.24 ± 0.44", "unit": "s"}]}
{"smiles": "CCN(CC)CC(=O)Nc1c(C)cccc1C", "note": "[lidocaine]", "values": [{"measurement": "time to full recovery of locomotory pattern", "setting": "wax moth larvae (WML); 0.81 mg injected, n = 5", "value": 6.42, "unit": "h"}, {"measurement": "effect of injection on large WML", "setting": "wax moth larvae (WML); 1.63 mg injected, 12 cases", "value": "lethal effect"}, {"measurement": "IC50", "setting": "hNav1.6 channels; hNav1.6 IC50, Phasic Experiment", "value": 299, "unit": "µM"}, {"measurement": "IC50", "setting": "hNav1.6 channels; hNav1.6 IC50, Tonic Experiment", "value": 1240, "unit": "µM"}, {"measurement": "IT0 (time required for 100% inhibition of the nCAP)", "setting": "[1]; 1.41 mg/mL", "value": "320.3 ± 14.96", "unit": "s"}, {"measurement": "IT50 (time to inhibit nCAP amplitude to 50% of control)", "setting": "[1]; 1.41 mg/mL", "value": "32.23 ± 3.16", "unit": "s"}, {"measurement": "IT0 (time required for 100% inhibition of the nCAP)", "setting": "[1]; 2.28 mg/mL", "value": "186.8 ± 8.07", "unit": "s"}, {"measurement": "IT50 (time to inhibit nCAP amplitude to 50% of control)", "setting": "[1]; 2.28 mg/mL", "value": "30.9 ± 0.22", "unit": "s"}, {"measurement": "IT0 (time required for 100% inhibition of the nCAP)", "setting": "[1]; 3.41 mg/mL", "value": "147.50 ± 9.96", "unit": "s"}, {"measurement": "IT50 (time to inhibit nCAP amplitude to 50% of control)", "setting": "[1]; 3.41 mg/mL", "value": "27.11 ± 3.16", "unit": "s"}, {"measurement": "IT0 (time required for 100% inhibition of the nCAP)", "setting": "[1]; 10 mg/mL", "value": "101.3 ± 2.16", "unit": "s"}, {"measurement": "IT50 (time to inhibit nCAP amplitude to 50% of control)", "setting": "[1]; 10 mg/mL", "value": "12.0 ± 0.95", "unit": "s"}, {"measurement": "IC50", "setting": "[1]; Rattus norvegicus, read-out: IC50 from concentration-response curves of the IT0 values", "value": 337, "unit": "µg/mL"}, {"measurement": "recovery of nCAP amplitude after wash with normal saline", "setting": "[1]; after elimination of nCAP, remained at this level for at least 24 h, n = 8", "value": 95.5, "unit": "%"}, {"measurement": "effect on axonal membrane", "setting": "rat sciatic nerve", "value": "disrupts the axonal membrane"}]}
